Measurements as given in patent publication EP4458352A1, “EICOSAPENTAENOIC ACID ESTER DERIVATIVES FOR THE TREATMENT OF OBESITY” (Technische Universität Dresden, priority 2023, dated 2024).

Columns and labels:
[1] = system: primary adrenocortical cells; test: Seahorse OCR measurement in primary adrenocortical cells treated with SC-26196; format: cell-based, WT C57BL/6J mice; settings: SC-26196 10 µM, 18 h vs DMSO; n=4
Procedure: Primary adrenocortical cells were plated in 0.2 % gelatin-precoated XF96 cell culture microplate (Agilent) (8*10^4 cells/well) and treated for 18 h with DMSO or SC-26196 (10 µM). OCR was measured with a Seahorse XF96 Analyzer (Agilent Technologies). The experimental medium used was XF Base Medium supplemented with glucose (10 mM), pyruvate (1 mM) and glutamine (2 mM).

[2] = system: primary adrenal cell cultures; test: Steroid hormone production (LC-MS/MS) in primary adrenal cell cultures treated with SC-26196, with or without ACTH or ARA; format: cell-based, WT C57BL/6J mice
Procedure: Adrenal glands or adrenal corteces were isolated from WT C57BL/6J mice, cleaned from the surrounding fat tissue and incubated in collagenase buffer (1.6 mg/ml collagenase type I, 1.6 mg/ml BSA) for 45 min at 37 °C, while shaking at 900 rpm. Dissociated cells were passed through 22 G needle and a 100 µm cell strainer and centrifuged at 300 × g for 5 min at 4 °C. Cells of a pool from two adrenals of each mouse were distributed in four 0.2 % gelatin-precoated wells of a 96-well plate in DMEM/F12 supplemented with 1 % FBS, 50 U/mL penicillin and 50 µg/mL streptomycin. Two hours after seeding 10 µM SC-26196 (Tocris, Wiesbaden-Nordenstadt, Germany) or same amount of carrier (DMSO) were added without changing the medium. In some experiments medium was additionally supplemented with 150 µM ARA (Sigma Aldrich, Germany) or same amount of solvent (endotoxin-free water). When induction of steroidogenesis was required, the medium was changed 18 h after treatment and the cells were incubated with or without 10 ng/mL ACTH for 60 min in the presence of either 10 µM SC-26196 or DMSO. Supernatants were kept for steroid hormone measurement and cell lysates were collected for transcriptional analysis. In some experiments, primary CD31-CD45- adrenocortical cells were treated or not for 18 h with 66 µM EPA (Sigma-Aldrich). Steroid hormones in plasma and cell culture supernatants were analyzed by LC-MS/MS as previously described (71). Fifty to hundred µL plasma or cell culture supernatants were extracted by solid phase extraction using positive pressure, followed by a dry-down under gentle stream of nitrogen. Residues were reconstituted in 100 µL of the initial LC mobile phase and 10 µL were injected for detection by the triple quadrupole mass spectrometer in multiple reaction-monitoring scan mode using positive electrospray ionization. Quantification of steroid concentrations was done by comparisons of ratios of analyte peak areas to respective peak areas of stable isotope labeled internal standards obtained in samples to those of calibrators.

[3] = system: primary adrenocortical cultures; test: Medulla explant-conditioned medium on primary adrenocortical cell cultures, steroids by LC-MS/MS; format: cell-based, WT C57BL/6J mice
Procedure: Medullas were isolated from WT C57BL/6J mice and transferred into DMEM/F12 medium. Six hours later the medulla explant supernatants were collected and applied onto adrenocortical cell cultures. These were previously treated for 6 h with SC-26196 (10 µM) or DMSO. SC-26196 or DMSO were re-added and adrenocortical cells were incubated for another 18 h until supernatants were collected for steroid measurement. In other experiments, medulla explants were treated for 6 h with SC-26196 (10 µM) or DMSO, washed thoroughly and left another 18 h in culture. Their supernatant was then applied on adrenocortical cell cultures and 8 h later supernatants of the latter were collected and analyzed by LC-MS/MS.
Steroid hormones in plasma and cell culture supernatants were analyzed by LC-MS/MS as previously described (71). Fifty to hundred µL plasma or cell culture supernatants were extracted by solid phase extraction using positive pressure, followed by a dry-down under gentle stream of nitrogen. […] Quantification of steroid concentrations was done by comparisons of ratios of analyte peak areas to respective peak areas of stable isotope labeled internal standards obtained in samples to those of calibrators.

[4] = system: NCI-H295R cells; test: Steroid production in forskolin-treated NCI-H295R cells treated with SC-26196; format: cell-based, Human; settings: FADS2 inhibition (SC-26196)
Procedure: NCI-H295R cells (obtained from ATCC Cat# CRL-2128) were maintained in DMEM/F12 medium supplemented with 2.5 % Nu-Serum type I (Corning), 1 % Insulin Transferrin Selenium (ITS; Gibco), 50 U/mL penicillin and 50 µg/mL streptomycin. They were treated for 18 h with 10 µM SC-26196 or DMSO. In some experiments, NCI-H295R cells were treated or not for 48 h 66 µM EPA and in the last 24 h they were stimulated or not with forskolin (10 µM; Sigma-Aldrich).
Steroid hormones in plasma and cell culture supernatants were analyzed by LC-MS/MS as previously described (71). Fifty to hundred µL plasma or cell culture supernatants were extracted by solid phase extraction using positive pressure, followed by a dry-down under gentle stream of nitrogen. Residues were reconstituted in 100 µL of the initial LC mobile phase and 10 µL were injected for detection by the triple quadrupole mass spectrometer in multiple reaction-monitoring scan mode using positive electrospray ionization. Quantification of steroid concentrations was done by comparisons of ratios of analyte peak areas to respective peak areas of stable isotope labeled internal standards obtained in samples to those of calibrators.

[5] = SC-26196 10 µM 18 h, then ACTH 10 ng/mL for 1 h, n=12

With N#CC(CCCN1CCN(/N=C/c2cccnc2)CC1)(c1ccccc1)c1ccccc1 [SC-26196] the “oxygen consumption rate (OCR)” value [1] was “decreased”, the 11-deoxycorticosterone production [2, 5] was “abolished” and the aldosterone production [2, 5] was “abolished”. For the same molecule, the corticosterone production [2, 5] was “abolished”, the progesterone production [2, 5] was “abolished” and the cell viability ([2]; SC-26196-treated primary adrenal cell cultures, data not shown) was “without affecting cell viability”. For the same molecule, the “steroid synthesis in cells receiving medulla-conditioned medium” value ([3]; adrenocortical cells treated 6 h with SC-26196 10 µM, then conditioned medium for another 18 h, n=4-6) was “diminished steroid synthesis”, the “increase of progesterone, 11-dehydrocorticosterone and corticosterone production by medulla-conditioned supernatants” value ([3]; medulla explants treated 6 h with SC-26196 10 µM, washed, 18 h culture, supernatant on adrenocortical cells 8 h, n=8) was “attenuated” and the 11-deoxycortisol production [4] was “reduced”. For the same molecule, the progesterone production [4] was “reduced”.
